Results reported in patent publication US20090208573A1, “NOVEL POLYMORPH FORM OF IRBESARTAN” (LEK PHARMACEUTICALS D.D, priority 2004, published 2009).
Like-named read-outs stand apart in the source and are kept apart here.

Legend:
[1] = 15% relative humidity and 23° C.
Description: A method of measuring electrostatic nature is a tribogeneration where relative charge on the powdered sample is measured with an electrometer equipped with a Faraday cup (NanoCoulumb Meter, Model 284, Monroe Electronics, USA). Prior to measurement, the charge is generated by strongly vibrating the sample (approximately 3 g) on a dry Petri dish (D=24 cm) for 2 minutes. The charged sample is then transferred to a Faraday cup of the electrometer with a plastic spoon and its charge is measured by an electrometer. After the charge measurement the sample is weighted and the relative charge calculated. All measurements are performed at controlled dry atmosphere conditions (15% relative humidity and 23° C.).

[2] = SEM image, N=200 crystals
Description: The shape of crystals is determined by an analysis of an image, taken by the scanning electron microscope (SEM), JEOL JXA840A at magnification 500-2000×. The length/width ratio of the crystal habit is determined by measuring length and width of a representative sample (N=200) of crystals on the image, using the image analyzing software Olympus DP-Soft, v-3.2. The length/width ratio is calculated independently for each crystal. Finally, the number average of the ratio is determined and optionally histogram calculated.

Row | SMILES | chargeab. (chargeability by tribogeneration) [1] | a (length of crystals) [2] | a:b (length/width ratio, number average) [2] | b (width of crystals) [2] | chargeab. (chargeability by tribogeneration) ([1]; listed as 1649) | chargeab. (chargeability by tribogeneration) ([1]; listed as 3913D)
1 | CCCCC1=NC2(CCCC2)C(=O)N1Cc1ccc(-c2ccccc2-c2nnn[nH]2)cc1 [Example 6, 2-n-butyl-4-spirocyclopentane-1-[((2′-tetrazol-5-yl)biphenyl-4-yl)methyl]-2-imidazolin-5-one] | −27.9 ± 2.8 10^−9 As/g | 32 ± 32 μm | 22 ± 18 | 1.4 ± 0.6 μm |  | 
2 | CCCCC1=NC2(CCCC2)C(=O)N1Cc1ccc(-c2ccccc2-c2nnn[nH]2)cc1 [Example 2, 2-n-butyl-4-spirocyclopentane-1-[((2′-tetrazol-5-yl)biphenyl-4-yl)methyl]-2-imidazolin-5-one] | −32 ± 4.6 10^−9 As/g | 78 ± 68 μm | 13.4 ± 1.9 | 6.7 ± 2.8 μm |  | 
3 | CCCCC1=NC2(CCCC2)C(=O)N1Cc1ccc(-c2ccccc2-c2nnn[nH]2)cc1 [Example 1, 2-n-butyl-4-spirocyclopentane-1-[((2′-tetrazol-5-yl)biphenyl-4-yl)methyl]-2-imidazolin-5-one] | −33.7 ± 15 10^−9 As/g | 14.9 ± 10.1 μm | 13 ± 10 | 1.2 ± 1.4 μm |  | 
4 | CCCCC1=NC2(CCCC2)C(=O)N1Cc1ccc(-c2ccccc2-c2nnn[nH]2)cc1 [Example 5, 2-n-butyl-4-spirocyclopentane-1-[((2′-tetrazol-5-yl)biphenyl-4-yl)methyl]-2-imidazolin-5-one] | −17.1 ± 2.9 10^−9 As/g | 58 ± 50 μm | 9.5 ± 8 | 6.4 ± 1.2 μm |  | 
5 | CCCCC1=NC2(CCCC2)C(=O)N1Cc1ccc(-c2ccccc2-c2nnn[nH]2)cc1 [Example 4, 2-n-butyl-4-spirocyclopentane-1-[((2′-tetrazol-5-yl)biphenyl-4-yl)methyl]-2-imidazolin-5-one] | −27.5 ± 5.6 10^−9 As/g | 130 ± 96 μm | 17 ± 12.9 | 7.9 ± 3.4 μm |  | 
6 | CCCCC1=NC2(CCCC2)C(=O)N1Cc1ccc(-c2ccccc2-c2nnn[nH]2)cc1 [Example 7, 2-n-butyl-4-spirocyclopentane-1-[((2′-tetrazol-5-yl)biphenyl-4-yl)methyl]-2-imidazolin-5-one] | −26.5 ± 6 10^−9 As/g | 21 ± 17 μm | 13 ± 9 | 2.6 ± 1.0 μm | −26.5±6 10^−9 As/g | 
7 | CCCCC1=NC2(CCCC2)C(=O)N1Cc1ccc(-c2ccccc2-c2nnn[nH]2)cc1 [Example 3, 2-n-butyl-4-spirocyclopentane-1-[((2′-tetrazol-5-yl)biphenyl-4-yl)methyl]-2-imidazolin-5-one] | −45.8 ± 4.9 10^−9 As/g | 20.7 ± 17.4 μm | 23.3 ± 23 | 1.0 ± 0.5 μm |  | 45.8±4.9 10^−9 As/g
